These results are taken from patent US10041937B2, “Macrophage identification agent, and identification method, sorting method, evaluation method, screening method and kit using the macrophage identifier agent” (CANON KABUSHIKI KAISHA, priority 2013, dated 2018).

The test system of this assay is M1 macrophages and M2 macrophages differentiated from mouse bone marrow cells. Briefly: Subtype identification by staining and flow cytometry of M1 and M2 macrophages differentiated from mouse bone marrow cells. The class given is cell-based, Balb/c mouse. The method, then: The culture of subtypes was performed according to a protocol described in NPL 7. Specifically, bone marrow cells collected from the femur of a Balb/c mouse of 8 to 10 weeks old were dispersed to a concentration of 1×10^6/mL in an IMDM containing 20% FBS and 1% P/S, and 1×10^7 cells were seeded in a 100 mm dish. After further adding an M-CSF (manufactured by Pepro Tech) thereto to a concentration of 50 ng/mL, the cells were incubated for 3 to 4 days in the presence of 5% CO2 at 37° C., so as to differentiate macrophage precursor cells to macrophages. After exchanging the medium, the M-CSF was added to a concentration of 50 ng/mL, and the incubation was performed for further 3 to 4 days in the presence of 5% CO2 at 37° C., and then, the resulting cells were differentiated to macrophage. By adding 200 ng of interferon-γ and 1 μg of […] (both manufactured by Pepro Tech) to the IMDM containing 5% FBS and 1% P/S, the cells were differentiated to the subtype M1. Besides, by adding 100 ng of IL-4 to the IMDM containing 5% FBS and 1% P/S, the cells were differentiated to the subtype M2. After performing the incubation for further 3 days in the presence of 5% CO2 at 37° C., the resultant was rinsed with PBS, and PBS containing 0.25% trypsin and 1 mM EDTA (ethylenediaminetetraacetic acid) was used for collecting, from the dish, the macrophages having been differentiated to the subtypes M1 and M2.
Thereafter, the tube was centrifuged at 180 G for 10 minutes to remove the supernatant, a dye for identifying dead cells (aqua fluorescent reactive dye, manufactured by Invitrogen; which is hereinafter sometimes abbreviated as aqua) was added thereto, and the resultant was incubated at 4° C. for 10 minutes. Subsequently, the tube was centrifuged at 180 G for 10 minutes to remove the supernatant, cells were suspended in a FACS buffer to be analyzed by using FACSCanto (trademark) II flow cytometry apparatus manufactured by BD.
The analysis was performed on a cell population showing a low signal for the aqua, so as to analyze a cell population from which dead cells were eliminated. […] A histogram was prepared by plotting fluorescence intensity obtained in the FITC channel on the abscissa and plotting the number of cells at each fluorescence intensity on the ordinate, which is shown in FIG. 2.
Histograms were prepared by plotting fluorescence intensities obtained in the respective channels on the abscissa and plotting the numbers of cells at each fluorescence intensity on the ordinate. A difference between a fluorescence intensity (FM1) at a peak top of the histogram of the M1 macrophage and a fluorescence intensity (FM2) at a peak top of the histogram of the M2 macrophage is divided by a sum of a peak width (WM1) of the histogram of the M1 macrophage and a peak width (WM2) of the histogram of the M2 macrophage, so as to obtain a resolution R, which was used as an index of the identification ability for a subtype (see the following expression (1)). Resolution R=|FM1−FM2|/(WM1+WM2) Expression (1)

Where [1] appears, read: R=|FM1−FM2|/(WM1+WM2), compound 1 μM.
Where [2] appears, read: fluorescence intensity at peak top of histogram, compound 1 μM, 37° C., 30 minutes.
Setting [3] is: M1 vs M2 macrophages from mouse bone marrow cells, general formula (6) dyes (Table 7).
Where [4] appears, read: class based on resolution R, general formula (6) dyes (Table 7).
Setting [5] is: mouse bone marrow-derived M1 macrophages, channel listed per compound, general formula (6) dyes (Table 7).
[6] abbreviates: mouse bone marrow-derived M2 macrophages, channel listed per compound, general formula (6) dyes (Table 7).
Setting [7] is: M1 vs M2 macrophages from mouse bone marrow cells, general formula (10) dyes (Table 8).
[8] abbreviates: class based on resolution R, general formula (10) dyes (Table 8).
[9] abbreviates: mouse bone marrow-derived M1 macrophages, channel listed per compound, general formula (10) dyes (Table 8).
[10] abbreviates: mouse bone marrow-derived M2 macrophages, channel listed per compound, general formula (10) dyes (Table 8).

On to `CCOC(=O)CN1C(=O)/C(=C\c2cc(Br)c3c(c2)C2CCCC2N3c2ccc(Br)cc2)SC1=S` (centres unmarked) [(49)], for which the “Resolution ratio R” value under setting [1] came to 0.486. In addition, under setting [2], the “Peak position of M1 macrophage” value came out at 3.26 and the “Peak position of M2 macrophage” value is 5.02. Further, under “rated from resolution R”, the “Evaluation of macrophage subtype identification” value (shortened to “Evaluation”) was “B (the compound is good in the subtype identification (namely, the resolution R is 0.15 or more and less than 0.5))”.

For the compound `CCOC(=O)Cn1c(=O)/c(=C\c2ccc3c(c2)C2CCCC2N3c2ccc(OC)cc2)s/c1=C1/SC(=O)N(CC)C1=O` (centres unmarked) [(45)], the “Resolution ratio R” value under setting [1] was determined as 0.822. Moreover, under setting [2], the “Peak position of M1 macrophage” value turned out to be 18.2 and the “Peak position of M2 macrophage” value was found to be 4.84. In addition, the “Evaluation” value (rated from resolution R) is reported as “A (The compound is very good in the subtype identification (namely, the resolution R is 0.5 or more))”.

With `CCN1C(=C/C=C/c2n(CC)c3cc(Cl)c(Cl)cc3[n+]2CC)N(CC)c2cc(Cl)c(Cl)cc21` [compound (103)], under setting [3], the “Resolution ratio R” value is reported as 0.597. Also, the “Evaluation” value under setting [4] is recorded as “A (The compound is very good in the subtype identification (namely, the resolution R is 0.5 or more))”. The “Peak position of M1 macrophage” value under setting [5] is listed as 2.97. Also, the “Peak position of M2 macrophage” value under setting [6] came out at 8.23. In addition, the “subtype more strongly stained” value (two compounds used in combination, each 1 μM) is listed as “the M2 macrophage shows a higher fluorescence intensity in the PE-Cy7 channel than the M1 macrophage”.

Take `CCN1C(=O)S/C(=c2/s/c(=C/c3ccc4c(c3)C3CCCC3N4c3ccc(OC)cc3)c(=O)n2CC(=O)O)C1=O` (centres unmarked) [(44)]: under setting [1], the “Resolution ratio R” value is 0.330. Moreover, under setting [2], the “Peak position of M1 macrophage” value worked out at 24.5 and the “Peak position of M2 macrophage” value is 12.9. In addition, for the setting “rated from resolution R”, the “Evaluation” value is “B (the compound is good in the subtype identification (namely, the resolution R is 0.15 or more and less than 0.5))”.

In the case of `CC1(C)C(/C=C/C=C/C=C/C=C2\N(CCCCS(=O)(=O)[O-])c3ccccc3C2(C)C)=[N+](CCCCS(=O)(=O)[O-])c2ccccc21.[Na+]` [(88)], the “Resolution ratio R” value under setting [3] is given as 0.241. Also, the “Evaluation” value under setting [4] was “B (the compound is good in the subtype identification (namely, the resolution R is 0.15 or more and less than 0.5))”. For the same compound, the “Peak position of M1 macrophage” value under setting [5] is given as 0.95. Besides, the “Peak position of M2 macrophage” value under setting [6] came out at 1.48.

With `COc1ccc(N2c3ccc(/C=C/C4=[N+](C)c5ccccc5C4(C)C)cc3C3CCCC32)cc1` (centres unmarked) [(62)], under setting [1], the “Resolution ratio R” value is 0.561. Further, under setting [2], the “Peak position of M1 macrophage” value is on record as 193 and the “Peak position of M2 macrophage” value was determined as 333. Moreover, the “Evaluation” value (rated from resolution R) was “A (The compound is very good in the subtype identification (namely, the resolution R is 0.5 or more))”. In addition, where the note is “subtype strongly stained”, the Selectivity result was “M2”.

For `CCN(CC)c1ccc2cc(-c3nc4cc(Cl)ccc4s3)c(=O)oc2c1` [(122)], under setting [7], the “Resolution ratio R” value turned out to be 0.377. The “Evaluation” value under setting [8] was “B (the compound is good in the subtype identification (namely, the resolution R is 0.15 or more and less than 0.5))”. The “Peak position of M1 macrophage” value under setting [9] was found to be 142. The “Peak position of M2 macrophage” value under setting [10] is recorded as 211.

Regarding `CCN(CC)c1ccc2cc(-c3nc4cc(C(=O)O)ccc4o3)c(=O)oc2c1` [(127)], the “Resolution ratio R” value under setting [7] is reported as 0.381. Further, the “Evaluation” value under setting [8] is “B (the compound is good in the subtype identification (namely, the resolution R is 0.15 or more and less than 0.5))”. Moreover, the “Peak position of M1 macrophage” value under setting [9] amounted to 3.99. In addition, under setting [10], the “Peak position of M2 macrophage” value is recorded as 6.00.

Take `CCCCCCCCN1C(=O)/C(=c2\s/c(=C/c3ccc4c(c3)C3CCCC3N4c3ccc(C=C(c4ccccc4)c4ccccc4)cc3)c(=O)n2CC(=O)O)SC1=S` (centres unmarked) [(38)]: the “Resolution ratio R” value under setting [1] was found to be 0.724. Also, under setting [2], the “Peak position of M1 macrophage” value stood at 3.74 and the “Peak position of M2 macrophage” value came out at 1.63. The “Evaluation” value (rated from resolution R) is listed as “A (The compound is very good in the subtype identification (namely, the resolution R is 0.5 or more))”.

Consider `O=C(O)CN1C(=O)/C(=C\c2ccc3c(c2)C2CCCC2N3c2ccc(C=C(c3ccccc3)c3ccccc3)cc2)SC1=S` (centres unmarked) [(31)], for which the “Resolution ratio R” value under setting [1] stood at 0.248. In addition, under setting [2], the “Peak position of M1 macrophage” value was 65.1 and the “Peak position of M2 macrophage” value was 89.0. Moreover, the “Evaluation” value (rated from resolution R) was “B (the compound is good in the subtype identification (namely, the resolution R is 0.15 or more and less than 0.5))”.

In the case of `COc1ccc(N2c3ccc(/C=C/C4=[N+](CCC(=O)O)c5ccc6ccccc6c5C4(C)C)cc3C3CCCC32)cc1` (centres unmarked) [(60)], the “Resolution ratio R” value under setting [1] is listed as 0.621. In addition, under setting [2], the “Peak position of M1 macrophage” value is recorded as 4.55 and the “Peak position of M2 macrophage” value amounted to 7.65. In addition, where the note is “rated from resolution R”, the “Evaluation” value is “A (The compound is very good in the subtype identification (namely, the resolution R is 0.5 or more))”.

Regarding `CSc1ccc(N2c3ccc(/C=C4/SC(=S)N(CC(=O)O)C4=O)cc3C3CCCC32)cc1` (centres unmarked) [(30)], the “Resolution ratio R” value under setting [1] is listed as 0.257. For the same compound, under setting [2], the “Peak position of M1 macrophage” value came to 55.1 and the “Peak position of M2 macrophage” value turned out to be 73.9. Besides, where the note is “rated from resolution R”, the “Evaluation” value was “B (the compound is good in the subtype identification (namely, the resolution R is 0.15 or more and less than 0.5))”.

As for `COc1ccc(N2c3ccc(/C=c4/s/c(=C5/SC(=S)N(Cc6ccccc6)C5=O)n(CC(=O)O)c4=O)cc3C3CCCC32)cc1` (centres unmarked) [(54)], the “Resolution ratio R” value under setting [1] is reported as 0.531. For the same compound, under setting [2], the “Peak position of M1 macrophage” value amounted to 154 and the “Peak position of M2 macrophage” value worked out at 211. Where the note is “rated from resolution R”, the “Evaluation” value is on record as “A (The compound is very good in the subtype identification (namely, the resolution R is 0.5 or more))”.

Turning to `COc1ccc(N2c3ccc(/C=C4/SC(=S)N(CC(=O)O)C4=O)cc3C3CCCC32)cc1` (centres unmarked) [(25)], under setting [1], the “Resolution ratio R” value came to 0.346. Also, under setting [2], the “Peak position of M1 macrophage” value was 27.4 and the “Peak position of M2 macrophage” value is recorded as 18.2. For the same compound, where the note is “rated from resolution R”, the “Evaluation” value was “B (the compound is good in the subtype identification (namely, the resolution R is 0.15 or more and less than 0.5))”.

As for `O=C(O)Cn1c(=O)/c(=C\c2ccc3c(c2)C2CCCC2N3c2ccc(C=C(c3ccccc3)c3ccccc3)cc2)s/c1=C1/CC(=S)N(Cc2ccccc2)C1=O` (centres unmarked) [(20)], under setting [1], the “Resolution ratio R” value is listed as 0.290. Moreover, under setting [2], the “Peak position of M1 macrophage” value is given as 4.47 and the “Peak position of M2 macrophage” value was 2.10. In addition, the “Evaluation” value (rated from resolution R) is “B (the compound is good in the subtype identification (namely, the resolution R is 0.15 or more and less than 0.5))”.

Take `CCN1c2ccc(/C=C3/SC(=S)N(CC(=O)O)C3=O)cc2C2CCCC21` (centres unmarked) [(26)]: the “Resolution ratio R” value under setting [1] was 0.202. Moreover, under setting [2], the “Peak position of M1 macrophage” value amounted to 3.51 and the “Peak position of M2 macrophage” value was found to be 4.49. For the same compound, the “Evaluation” value (rated from resolution R) was “B (the compound is good in the subtype identification (namely, the resolution R is 0.15 or more and less than 0.5))”.

For `O=C(O)CCCCCN1C(=O)/C(=C\c2ccc3c(c2)C2CCCC2N3c2ccccc2)SC1=S` (centres unmarked) [(17)], under setting [1], the “Resolution ratio R” value was 0.577. In addition, under setting [2], the “Peak position of M1 macrophage” value worked out at 7.74 and the “Peak position of M2 macrophage” value came to 16.5. Further, where the note is “rated from resolution R”, the “Evaluation” value is “A (The compound is very good in the subtype identification (namely, the resolution R is 0.5 or more))”.

With `CSc1ccc(N2c3ccc(/C=C4/SC(=S)N(CCC(=O)O)C4=O)cc3C3CCCC32)cc1` (centres unmarked) [(6)], the “Resolution ratio R” value under setting [1] is 0.504. Further, under setting [2], the “Peak position of M1 macrophage” value came out at 26.5 and the “Peak position of M2 macrophage” value was 50.4. For the same compound, the “Evaluation” value (rated from resolution R) is recorded as “A (The compound is very good in the subtype identification (namely, the resolution R is 0.5 or more))”.
